Data taken from PubChem BioAssay (NCI).
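Each compound was tested at five concentrations against cells in 96-well plates for 48 hours. TGI denotes the concentration required for complete inhibition of growth.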

Tests used:
Test in all cases: DTP human tumour cell line panel, 48 h
SN12C renal = tested on: SN12C renal
HL-60(TB) leukemia = tested on: HL-60(TB) leukemia
HCC-2998 colon = tested on: HCC-2998 colon
MALME-3M melanoma = tested on: MALME-3M melanoma
T-47D breast = tested on: T-47D breast
HCT-116 colon = tested on: HCT-116 colon
SF-539 CNS = tested on: SF-539 CNS
IGROV1 ovarian = tested on: IGROV1 ovarian
M14 melanoma = tested on: M14 melanoma
TK-10 renal = tested on: TK-10 renal
K-562 leukemia = tested on: K-562 leukemia
SNB-19 CNS = tested on: SNB-19 CNS
786-0 renal = tested on: 786-0 renal
SW-620 colon = tested on: SW-620 colon
DU-145 prostate = tested on: DU-145 prostate
KM12 colon = tested on: KM12 colon
SK-MEL-5 melanoma = tested on: SK-MEL-5 melanoma
SF-295 CNS = tested on: SF-295 CNS
SK-OV-3 ovarian = tested on: SK-OV-3 ovarian
SNB-75 CNS = tested on: SNB-75 CNS
HOP-92 NSCLC = tested on: HOP-92 NSCLC
UO-31 renal = tested on: UO-31 renal
ACHN renal = tested on: ACHN renal
HOP-62 NSCLC = tested on: HOP-62 NSCLC
CAKI-1 renal = tested on: CAKI-1 renal
PC-3 prostate = tested on: PC-3 prostate
MDA-N = tested on: MDA-N
MDA-MB-435 = tested on: MDA-MB-435
CCRF-CEM leukemia = tested on: CCRF-CEM leukemia
COLO 205 colon = tested on: COLO 205 colon
NCI-H226 lung = tested on: NCI-H226 lung
SK-MEL-28 melanoma = tested on: SK-MEL-28 melanoma
U251 CNS = tested on: U251 CNS
MDA-MB-231 breast = tested on: MDA-MB-231 breast
NCI-H522 lung = tested on: NCI-H522 lung
MOLT-4 leukemia = tested on: MOLT-4 leukemia
RPMI-8226 leukemia = tested on: RPMI-8226 leukemia
UACC-257 melanoma = tested on: UACC-257 melanoma
HT29 colon = tested on: HT29 colon
RXF 393 renal = tested on: RXF 393 renal
NCI/ADR-RES ovarian = tested on: NCI/ADR-RES ovarian
EKVX NSCLC = tested on: EKVX NSCLC
HCT-15 colon = tested on: HCT-15 colon
OVCAR-8 ovarian = tested on: OVCAR-8 ovarian
SK-MEL-2 melanoma = tested on: SK-MEL-2 melanoma
OVCAR-3 ovarian = tested on: OVCAR-3 ovarian
UACC-62 melanoma = tested on: UACC-62 melanoma
A549 NSCLC = tested on: A549 NSCLC
LOX IMVI melanoma = tested on: LOX IMVI melanoma
NCI-H23 lung = tested on: NCI-H23 lung
A498 renal = tested on: A498 renal
OVCAR-4 ovarian = tested on: OVCAR-4 ovarian
OVCAR-5 ovarian = tested on: OVCAR-5 ovarian
MCF7 breast = tested on: MCF7 breast
SF-268 CNS = tested on: SF-268 CNS
HS 578T breast = tested on: HS 578T breast
NCI-H460 lung = tested on: NCI-H460 lung
SR leukemia = tested on: SR leukemia

Measured: TGI

Cc1ccc(Nc2nc(N)nc3c2ncn3C2OC(CO)C(O)C2O)cc1 (stereo unspecified)
not listed: SF-268 CNS | HS 578T breast | NCI-H460 lung | SR leukemia
> 100 µM: all other assays above

COC(=O)C1=Cc2cc(OC)c(O)cc2[C@@H](c2ccc(O)c(OC)c2)[C@@H]1C(=O)OC
not listed: TK-10 renal | SK-OV-3 ovarian | CAKI-1 renal | SK-MEL-2 melanoma | UACC-62 melanoma | OVCAR-4 ovarian
> 100 µM: all other assays above
